Measured values reported in the supplement of paper PMC11061612.

How the values were obtained:
[1] = system: NCI-H1694 (Small Cell Lung Carcinoma); experiment: Bliss excess, mean over the matrix (fraction); higher = more synergy
Procedure, shortened: (§1)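 Cell lines in DMEM/F12 or RPMI with 10% FBS were plated in 1536-well plates, held 24 hours at 37°C, 5% CO2, then given two-drug dose matrices for 72 hours (DMSO typically 0.2%). Viability was read by CellTiter-Glo 2.0 luminescence and scaled as inhibition from 0 (vehicle wells) to 1 (blank wells). Combination Emax is the second-highest inhibition in the matrix; Bliss excess is observed combination effect minus expected EA + EB − EA·EB, EA and EB being single-agent effects.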

[2] = system: KATOIII (Gastric Carcinoma); experiment: as above
Procedure, shortened: as §1

[3] = system: NCI-H2595 (Mesothelioma); experiment: as above
Procedure, shortened: as §1

[4] = system: KM-H2 (Hodgkin's Lymphoma); experiment: as above
Procedure, shortened: as §1

[5] = system: RH-1 (Ewing's Sarcoma); experiment: as above
Procedure, shortened: as §1

[6] = system: TGBC24TKB (Biliary Tract Carcinoma); experiment: as above
Procedure, shortened: as §1

[7] = system: CTV-1 (T-Lymphoblastic Leukemia); experiment: as above
Procedure, shortened: as §1

[8] = system: KARPAS-1106P (B-Cell Non-Hodgkin's Lymphoma); experiment: as above
Procedure, shortened: as §1

[9] = system: SW1990 (Pancreatic Carcinoma); experiment: as above
Procedure, shortened: as §1

[10] = system: SUIT-2 (Pancreatic Carcinoma); experiment: as above
Procedure, shortened: as §1

[11] = system: G-292-Clone-A141B1 (Osteosarcoma); experiment: as above
Procedure, shortened: as §1

[12] = system: HCC2157 (Breast Carcinoma); experiment: combination Emax (second highest fraction inhibited in the dose matrix, 72 h); higher = more inhibition; extreme values may be limits of the assay
Procedure, shortened: as §1

[13] = system: NCI-H2595 (Mesothelioma); experiment: as above
Procedure, shortened: as §1

[14] = system: IGR-1 (Melanoma); experiment: as above
Procedure, shortened: as §1

[15] = system: CTV-1 (T-Lymphoblastic Leukemia); experiment: as above
Procedure, shortened: as §1

[16] = system: NALM-6 (B-Lymphoblastic Leukemia); experiment: as above
Procedure, shortened: as §1

[17] = system: KARPAS-1106P (B-Cell Non-Hodgkin's Lymphoma); experiment: as above
Procedure, shortened: as §1

[18] = system: SW1088 (Low Grade Glioma); experiment: as above
Procedure, shortened: as §1

[19] = system: DMS-273 (Small Cell Lung Carcinoma); experiment: as above
Procedure, shortened: as §1

[20] = system: G-292-Clone-A141B1 (Osteosarcoma); experiment: as above
Procedure, shortened: as §1
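Throughout, for Bliss excess, mean over the matrix: after 72 h of two-drug dosing.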

Row | Compound | Bliss excess [1] | Bliss excess [2] | Bliss excess [3] | Bliss excess [4] | Bliss excess [5] | Bliss excess [6] | Bliss excess [7] | Bliss excess [8] | Bliss excess [9] | Bliss excess [10] | Bliss excess [11] | combination Emax [12] | combination Emax [13] | combination Emax [14] | combination Emax [15] | combination Emax [16] | combination Emax [17] | combination Emax [18] | combination Emax [19] | combination Emax [20]
1 | COc1cccc(OCCCN)c1-c1cc(Nc2cnc(C#N)cn2)n[nH]1 [Prexasertib] + Cc1cc2ncnn2cc1Nc1ncc2c(n1)n(C1CCOCC1)c(=O)n2C [AZD7648] (first compound max 1 µM, 7x7, partner max 10 µM) | -0.0259 | 0.0048 | -0.0172 | -0.023 | -0.0085 | -0.0412 | -0.0495 | -0.0595 | -0.0317 | -0.0063 | -0.049 | 0.958 | 0.159 | 0.508 | 0.966 | 0.943 | 0.909 | 0.762 | 0.909 | 0.295
2 | CN(CCO)CC[C@H](CSc1ccccc1)Nc1ccc(S(=O)(=O)NC(=O)c2ccc(N3CCC([C@@H](O)c4ccccc4-c4ccc(Cl)cc4)CC3)cc2)cc1S(=O)(=O)C(F)(F)F [AZD4320] + CN(C)CCCOc1ccc(-c2ccc3ncc4c(c3c2)n(C2CCOCC2)c(=O)n4C)cn1 [AZD0156] (first compound max 1 µM, 7x7, partner max 1 µM) | 0.0791 | -0.034 | -0.0348 | -0.0038 | -0.024 | 0.0025 | -0.0055 | -0.0055 | -0.0411 | -0.0407 | -0.015 | 0.936 | 0.12 | 0.342 | 0.211 | 0.973 | 0.146 | 0.164 | 0.247 | 0.647
3 | COc1cccc(OCCCN)c1-c1cc(Nc2cnc(C#N)cn2)n[nH]1 [Prexasertib] + CN(C)CCCOc1ccc(-c2ccc3ncc4c(c3c2)n(C2CCOCC2)c(=O)n4C)cn1 [AZD0156] (first compound max 1 µM, 7x7, partner max 1 µM) | -0.0433 | -0.0053 | -0.0573 | -0.0337 | 0.0241 | -0.0414 | -0.0108 | -0.0308 | -0.0247 | -0.0055 | -0.0849 | 0.976 | 0.1 | 0.466 | 0.988 | 0.923 | 0.919 | 0.797 | 0.923 | 0.33
